From patent publication US11839210B1, “Plant growth promoter with strigolactones regulation activities” (King Abdullah University of Science and Technology, priority 2017, dated 2023)

Legend:
[1] = tested on: wild-type and zas mutant rice seedlings; assay: Rescue of zas mutant root phenotype, hydroponically grown rice seedlings; type: in vivo, Oryza sativa Nipponbare; settings: hydroponic, 2.5 μM zaxinone
Method: For rescue of zas mutant phenotype with zaxinone, one week-old seedlings were grown hydroponically in Hoagland nutrient solution containing K2HPO4·2H2O (+Pi) for 3 weeks with 2.5 μM zaxinone treatment or Mock treatment (0.1% acetone). The solution was changed every other day, adding the chemical at each renewal. Plants grown without zaxinone served as the controls and phenotypic data were recorded.
Phenotypic characteristics of hydroponically grown Nipponbare wild-type and zas mutant rice plants were examined to determine the effect of zaxinone treatment on plant growth. Data are means±SD [(FIG. 16A), n=12; (FIG. 16B), n=6; (FIG. 16C), n=4; (FIG. 16D), n=8; Con=Control, Zax=Zaxinone]. Different letters denote significant difference following a One-way ANOVA test (P<0.05).

Zaxinone Synthase (ZAS) = assay: qRT-PCR of ZAS transcript levels in rice after zaxinone or GR24; type: in vivo, rice (Nipponbare); settings: phosphate starvation, 5 μM, 6 h
Method: (§1) Total RNA was extracted from the roots and shoots using a Qiagen Plant RNeasy Kit according to the manufacturer's instruction. cDNA was synthesized from 1 μg of total RNA using iScript cDNA Synthesis Kit (BIO-RAD Laboratories, Inc, 2000 Alfred Nobel Drive, Hercules, CA, Cat. No #170-8890) according to instructions in the user manual. For mycorrhizal samples, single-strand cDNA was synthesized from 1 μg of total RNA using Super-Script II (Invitrogen) according to instructions in the user manual. Primers used for real-time quantitative RT-PCR (qRT-PCR) analysis are listed below in Table 3. qRT-PCR was performed using SYBR Green Master Mix (Applied Biosystems; www.lifetechnologies.com) in a StepOnePlus (Life Technologies, Carlsbad, CA, USA). For mycorrhizal samples, qRT-PCR was performed using a Rotor-Gene Q 5plex HRM Platform (Qiagen). The 2-ΔCt method was used to calculate the relative gene expression levels and rice Ubiquitin (OsUBQ or OsRubQ1) gene was used as the internal control to normalize target gene expression.
FIGS. 14A-14C show transcript levels of Zaxinone Synthase (ZAS) in wild type roots and shoots. In FIG. 14A, the relative expression levels of ZAS under normal (+Pi) and phosphate-starved (−Pi) conditions in Nipponbare wild-type (WT) roots and shoots is seen. The expression levels in the WT root were normalized to 1. In FIG. 14B, the relative expression levels of ZAS under −Pi conditions with 5 μM of Zaxinone and GR24 treatment in WT rice root and shoot is seen. Three weeks-old seedlings were transferred to new hydroponic pots containing fresh media with or without chemicals for 6 h. The expression levels in the WT-mock were normalized to 1 and the expression levels were detected by qRT-PCR. Ubiquitin was used as a reference gene. Bars represent mean±SD (n=3). Mock treatment (0.1% acetone). Different letters above each bar denote significant difference following a One-way ANOVA test (P<0.05).

MAX1-Os900 = assay: qRT-PCR of MAX1-Os900 gene expression in rice roots after zaxinone treatment; type: in vivo, rice (Oryza sativa Nipponbare); settings: −Pi, 6 h
Method: (§2) For the analysis of SL transcript levels in the zas mutant, one week-old seedlings were grown hydroponically in half-strength modified Hoagland nutrient solution with K2HPO4·2H2O (+Pi) and without K2HPO4·2H2O (−Pi) for 7 days. Seedlings were further treated with zaxinone for 6 h and tissues were collected.
as §1
(§3) 14-day-old rice seedlings were transferred to new hydroponic pots containing fresh media with or without chemicals for 6 hours. SL biosynthetic (D27, D10, D17 and MAX1-Os900) gene expression were determined under −Pi conditions (phosphate deficient) with zaxinone (2.5 and 5 μM) treatment of both Nipponbare wild-type (WT) rice roots and zas mutant rice roots. The expression levels (1301) were detected by quantitative RT-PCR. Ubiquitin was used as a reference gene. Mock treatment (control) treatment consisted of 0.1% acetone. Bars (1302) show comparisons between the treatments and represent mean±SD (n=3). Decrease in SLs levels in the plants treated with zaxinone ranged from approximately 40% to 70%.

Striga hermonthica = Striga hermonthica infection in rice (pots with Striga infested soil); type: in vivo, Striga hermonthica on rice cv. IAC-165; settings: 10 μM zaxinone
Method: About 10 mg (4000) of Striga seeds were thoroughly mixed in 2 L soil and sand mixture (1:1), and added to a 3 L plastic pot. The pots with Striga seeds were kept under moist conditions at 35° C. for 10 days. Five days-old three rice seedlings (Oryza sativa L. cv. IAC-165) were then planted in the middle of each pot. A stock of 10 mM of zaxinone was prepared by mixing with an emulsifier (cyclohexanone+Atlas G1086). Three days after rice planting, zaxinone was applied at 10 μM through 20 ml water in each pot. Zaxinone was applied twice a week for up-to five weeks. Striga emergences were recorded six weeks after rice planting.

D17 = assay: qRT-PCR of D17 gene expression in rice roots after zaxinone treatment; type: in vivo, rice (Oryza sativa Nipponbare); settings: −Pi, 6 h
Method: as §2, §1, §3

[2] = tested on: Shiokari wild-type and ccd mutant seedlings (d17, d10, d3); assay: Zaxinone effect on root phenotypes of Shiokari wild-type and ccd mutant seedlings; type: in vivo, rice (Shiokari)
Method: For investigation of the zaxinone effect on CCD mutant phenotypes, one week-old seedlings were grown hydroponically in Hoagland nutrient solution containing K2HPO4·2H2O (+Pi) for 3 weeks with 2.5 μM zaxinone treatment or Mock treatment (0.1% acetone). The solution was changed every other day, adding the chemical at each renewal. Plants grown without zaxinone served as the controls and phenotypic data were recorded.
The effect of zaxinone (2.5 μM) on root phenotypes of hydroponically grown Shiokari wild-type and ccd mutant seedlings was also studied. FIG. 16D is a visual determination of root growth with (2.5 μM) zaxinone added to the growth medium and without zaxinone (control) for Shiokari wild-type seedlings and ccd mutant seedlings, d17, d10 and d3. The roots of seedlings grown with zaxinone were visually determined to be increased over the controls, with the wild-type (WT) showing the greatest increase. The visual results are confirmed by the root length and root biomass measurements seen in graphs FIG. 16D.

[3] = WT rice roots, 2.5 μM zaxinone, WT mock approx. 1.0
[4] = WT rice roots, 5.0 μM zaxinone, WT mock approx. 1.0
[5] = zas mutant rice roots, 2.5 μM zaxinone
[6] = zas mutant rice roots, 5.0 μM zaxinone

With CC(=O)/C=C/C=C(C)/C=C/C1=C(C)C[C@@H](O)CC1(C)C [zaxinone, 3-OH-β-apo-13-carotenone] the root growth ([1]; wild type plants) was “increase in root growth”, the crown root length ([1]; zas mutant, three weeks, untreated 7-9 cm) was 10-11 cm and the root biomass ([1]; zas mutant, three weeks, untreated 12-22 mg DW) was 28-35 mg DW. For the same compound, the crown root number ([1]; zas mutant, three weeks, untreated 20-23) was 27-32, the “effect on ZAS transcript levels compared between zaxinone and GR24” value (Zaxinone Synthase (ZAS); WT rice root tissues) was “more pronounced effect” and the “ZAS transcript levels in root tissues” value (Zaxinone Synthase (ZAS); WT rice) was “negatively impacted”. For the same compound, the “decrease of MAX1-Os900 relative expression vs mock” value (MAX1-Os900; WT rice roots, 2.5 μM zaxinone) was “approximately 75%”, the MAX1-Os900 relative expression (MAX1-Os900; [3]) was “approximately 0.25” and the “decrease of MAX1-Os900 relative expression vs mock” value (MAX1-Os900; WT rice roots, 5.0 μM zaxinone) was roughly 60%. The MAX1-Os900 relative expression (MAX1-Os900; [4]) was “approximately 0.4”, the “decrease of MAX1-Os900 relative expression vs mock” value (MAX1-Os900; [5]) was “approximately 43%” and the MAX1-Os900 relative expression (MAX1-Os900; zas mutant rice roots, 2.5 μM zaxinone, zas mock approx. 2.1) was “approximately 1.2”. For the same compound, the “decrease of MAX1-Os900 relative expression vs mock” value (MAX1-Os900; [6]) was roughly 57%, the MAX1-Os900 relative expression (MAX1-Os900; zas mutant rice roots, 5.0 μM zaxinone, zas mock approx. 2.1) was “approximately 0.9” and the “reduction of number of emerging Striga plants vs untreated control” value (Striga hermonthica; rice cv. IAC-165 in pots with Striga infested soil) was “around 80%”. For the same compound, the “number of emerging Striga plants” value (Striga hermonthica; six-week old rice cv. IAC-165 in soil, mock around 15-25) was “less than 10”, the “decrease of D17 relative expression vs mock” value (D17; WT rice roots, 2.5 μM zaxinone) was “approximately 75%” and the D17 relative expression (D17; [3]) was “approximately 0.25”. The “decrease of D17 relative expression vs mock” value (D17; WT rice roots, 5.0 μM zaxinone) was roughly 70%, the D17 relative expression (D17; [4]) was “approximately 0.3” and the “decrease of D17 relative expression vs mock” value (D17; [5]) was “approximately 60%”. The D17 relative expression (D17; zas mutant rice roots, 2.5 μM zaxinone, zas mock approx. 2.5) was “approximately 1.0”, the “decrease of D17 relative expression vs mock” value (D17; [6]) was roughly 68% and the D17 relative expression (D17; zas mutant rice roots, 5.0 μM zaxinone, zas mock approx. 2.5) was “approximately 0.8”. The “growth of roots in SL deficient mutants” value ([2]; SL biosynthesis and perception mutants) was “did not promote the growth of roots” and the “root growth (root length and root biomass)” value ([2]; Shiokari wild-type and d17, d10, d3 seedlings, hydroponic, 2.5 μM zaxinone) was “increasing the root growth for all of the seedlings”.
